Read-outs that look alike come from different tables or passages of the source.
What was measured:
[1] = tested on: MRC5-SV2 cell line; conditions: printed in Fig 4; ref [16]; cited from earlier work
[2] = tested on: T. b. brucei; conditions: cited from earlier work; for T.b.b. pEC50: data from original HTS, ref [13]
[3] = design: method as in PMID 25340575; conditions: data from original HTS; ref [13]; cited from earlier work
[4] = Human plasma protein binding (equilibrium dialysis); format: in vitro ADME
Procedure: PPB is determined using equilibrium dialysis (RED device) to separate free from bound compound. The amount of compound in plasma (10 µM initial concentration) and in dialysis buffer (pH 7.4 phosphate buffer) is measured by LC-MS/MS after equilibration at 37 °C in a dialysis chamber. The fraction unbound (fu) is reported.

[5] = tested on: L. donovani; experiment: EC50 in L. donovani (infected THP-1 macrophages, luciferase); format: cell-based, Leishmania donovani MHOM/ET/67/HU3; conditions: 72 h; for EC50: Leishmania donovani, read-out: L. donovani pEC50 (converted)
Procedure: Leishmania donovani MHOM/ET/67/HU3 cells with the luciferase gene integrated into the parasite genome[1] were grown at 28 °C in RPMI 1640-modified medium (Invitrogen) supplemented with 20% FBS with […] of hygromycin B.
The Human myelomonocytic cell line THP-1 was grown at 37 °C and 5% CO2 in RPMI-1640 supplemented with 10% iFBS, 2 mM […], 100 U/mL penicillin and […] streptomycin. 3 x 10^4 THP-1 cells per well in 96-well plates were differentiated to macrophages with 20 ng/mL of PMA treatment for 48 h followed by 24 h of culture in fresh medium.
Macrophage-differentiated THP-1 cells were infected at a macrophage/parasite ratio of 1/10 with stationary L. donovani promastigotes for 24 h at 35 °C and 5% CO2, and extracellular parasites were removed by washing with PBS. Infected cell cultures were then incubated with different compounds concentrations at 37 °C for 72 h. Luminescence was measured using the Promega kit luciferase assay system (Promega, Madison, WI). Assays were performed in duplicate at least twice, to achieve a minimal n=3 per dose response.

[6] = tested on: MRC5-SV2 cell line; experiment: Cytotoxicity assay in MRC5 (resazurin, 48 h); format: cell-based, human; conditions: MRC5 toxicity
Procedure: For dose-response experiments, compound plates were prepared for each analogue by serial 3-fold dilutions in 100% DMSO. Five concentration points (mammalian cytotoxicity) or ten concentration points (parasite growth inhibition), were made in 96-well transparent Nunclon plates. Pentamidine is routinely included in compound plates as internal quality control, and plates are stored sealed at -20 °C for no more than four weeks. Intermediate plates were made as described, adding 95 μL of DMEM complete media to 5 μL of compound per well setting a 5% DMSO amount. Log-phase MRC5 cells were removed from a T-75 TC flask using TrypLE® Express (Thermo®) and dispersed by gentle pipetting. Cell density was adjusted to working concentration in prewarmed DMEM medium: 25,000 cells in 90 μL of culture were plated in 96-well transparent Nunclon plates and let to settle for 24 h at 37 °C and 5% CO2. After settling incubation, 10 μL of fresh made intermediate plate were added per well: final maximal concentration for compounds was 50 μM in 0.5% DMSO per well. […] Fluorescence was read in an Infinite F200 plate reader (Tecan®) at 550 nm (excitation filter) and 590 nm (emission filter). A 4-parameter equation was used to fit the dose-response curves and determination of EC50 by SigmaPlot ® 13.0 software. Assays were performed in duplicate at least twice for positive compounds, to achieve a minimal n=3 per dose response.

[7] = tested on: T. b. brucei; experiment: T. b. brucei growth inhibition EC50 assay (resazurin, 72 h); format: cell-based, Trypanosoma brucei brucei Lister 427
Procedure: Mid-log phase growth T. b. brucei was diluted to a working cell density of 2,750 cells/mL and 90 μL/well dispensed into 96-well flat-bottom transparent assay plates (Nunc). Ten μL/well from intermediate plates were added. The final top concentration of compounds was 40 μM in 0.4% DMSO per well.
Assay plates were incubated for 72 h at 37°C and 5% CO2. Four hours prior to the end of the incubation, 20 μL of a 440 μM resazurin solution in prewarmed HMI-9 was added to each well and incubated for another 4 h. Fluorescence was then measured in an Infinite F200 plate reader (Tecan) at 550 nm (excitation filter) and 590 nm (emission filter). A 4-parameter equation was employed to fit the dose-response curves and determine of EC50 using the SigmaPlot 13.0 software. Assays were performed in duplicate at least twice, to achieve a minimal n = 3 per dose response.
Bloodstream Trypanosoma brucei brucei Lister 427 was cultured in Hirumi’s modified Iscove’s medium (HMI-9), supplemented with 10% heat-inactivated FBS, at 37 °C and 5% CO2 in T-25 vented flask (Corning®).
For dose-response experiments, compound plates were prepared for each analogue by serial 3-fold dilutions in 100% DMSO. Five concentration points (mammalian cytotoxicity) or ten concentration points (parasite growth inhibition), were made in 96-well transparent Nunclon plates. Pentamidine is routinely included in compound plates as internal quality control, and plates are stored sealed at -20 °C for no more than four weeks.

[8] = Shake-flask octanol-water Log D7.4; format: physicochemical; conditions: pH 7.4, octanol-water shake-flask
Procedure: Shake-flask octanol-water distribution coefficient at pH 7.4 (Log D7.4). The aqueous solution used is 10 mM sodium phosphate pH 7.4 buffer. The method has been validated for Log D7.4 ranging from -2 to 5.0.

[9] = Human liver microsomal CLint; format: in vitro ADME; conditions: human liver microsomes
Procedure: In vitro intrinsic clearance determined from human liver microsomes using a standard approach. Following incubation and preparation, the samples are analyzed using LC/MS/MS.

[10] = tested on: T. cruzi; experiment: β-D-Galactosidase transgenic T. cruzi assay (amastigote-infected L6 cells); format: cell-based, T. cruzi Tulahuen C4 strain; conditions: 96 h; for EC50: Trypanosoma cruzi, read-out: T. cruzi pEC50 (converted)
Procedure: The T. cruzi Tulahuen C4 strain, expressing the β-galactosidase gene (LacZ) and L6 rat skeletal muscle cells, used as host cells, were cultured in RPMI-1640 supplemented with 10% iFBS, 2 mM L-glutamine, 100 U/mL penicillin, and 100 μg/mL streptomycin at 37 °C and 5% CO2.
A Thermo Scientific Multidrop Combi dispenser (MTX Lab Systems, Vienna, VA) was used to dispense 90 μL of T. cruzi amastigote–infected L6 cell culture (4×10^3 infected L6 cells per well) into 96-well Corning assay plates (Corning Inc., Corning, NY) already containing 10 μL of the compounds to be screened and controls. The plates were incubated at 37 °C for 96 h. Then, 30 μL of 100 μM CPRG and 0.1% NP40 diluted in PBS were added to each well, and the plates were incubated for 4 h at 37 °C in the dark. Absorbance at 585 nm was measured in a Vmax kinetic microplate reader ([…]). Compound activities were normalized using the in-plate negative (benznidazole at 10 μg/mL) and positive (0.2% DMSO) growth controls.

[11] = Aqueous pH 7.4 solubility; format: physicochemical; conditions: aqueous buffer, thermodynamic from solid; pH 7.4 phosphate buffer, 25 °C, 20-24 h; read-out: Aq. Solubility
Procedure: Compounds are dried down from 10 mM DMSO solutions using centrifugal evaporation technique. Phosphate buffer (0.1 M pH 7.4) added and StirStix inserted in the glass vials, shaking is then performed at a constant temperature of 25 °C for 20-24 h. This step is followed by double centrifugation with a tip wash in between, to ensure that no residues of the dried compound are interfering. The solutions are diluted before analysis and quantification using LC/MS/MS is performed.

[12] = tested on: S. mansoni adults and somules; experiment: S. mansoni phenotypic assay, adults and somules (severity score); format: cell-based, Schistosoma mansoni (NMRI isolate); conditions: for Adult severity score (10 μM): adults; for Adult severity score (10 μM) / Somule severity score (10 μM): score 0-4; for Somule severity score (10 μM): somules
Procedure: Maintenance of the Schistosoma mansoni life cycle, preparation of somules (post-infective larvae) and adult worms (≥42-days-old), and co-incubation of these stages with test compounds were as described. An NMRI isolate of S. mansoni was used for all whole-organism screens.
Somules (40 units/well/96w round-bottomed plate) or adults (five paris/well/24w plate) were cultured in the presence of compounds at 10 µM and phenotypic changes observed as a function of time using an Zeiss Axiovert A1 inverted microscope (Table S4). A constrained nomenclature was used to describe the effects of compounds on parasites (changes in shape, motility and density). To generate a partially quantitative output for comparing drug effects, each descriptor was awarded a score of 1 and these were summed to a maximum score of 4 [7-10]: evidence of degeneracy or death was awarded the maximum score of 4. For adults specifically, damage to the tegument (outer surface) was also awarded a score of 4 based on the indication that damage to the patrasite’s surface is lethal in vivo [11]. Assays were performed twice and representative data are shown.

[13] = Rat hepatocyte CLint; format: in vitro ADME; conditions: rat hepatocytes
Procedure: In vitro intrinsic clearance determined from rat hepatocytes using a standard approach. Following incubation and preparation, the samples are analyzed using LC/MS/MS.

Row | Compound | Kinetic aq. solubility [3] [µM] | T.b.b. pEC50 [2] | EC50 [5] [µM] | MRC5 pTC50 [6] | EC50 [10] [µM] | Adult severity score (10 μM) ([12]; 3h) | Adult severity score (10 μM) ([12]; 6h) | Adult severity score (10 μM) ([12]; 24h) | Adult severity score (10 μM) ([12]; 48h) | Somule severity score (10 μM) ([12]; 24h) | Somule severity score (10 μM) ([12]; 48h) | further results
1 | CCS(=O)(=O)Nc1ccc2c(c1)/C(=C(/Nc1ccc(CN3CCCCC3)cc1)c1ccccc1)C(=O)N2 [Hesperadin, reference compound] |  |  |  |  |  |  |  |  |  |  |  | MRC5 pTC50 [1]: 6.69; T.b.brucei pEC50 ([2]; printed in Fig 4, ref [16]): 7.22
2 | NS(=O)(=O)c1ccc(N/N=C2\C(=O)Nc3ccc4ncccc4c32)cc1 [NEU-1184] | 7.7 | 7.1 |  |  |  |  |  |  |  |  |  | 
3 | O=C1Nc2ccccc2C1=NNc1ccccc1 [NEU-2116, (Z)-3-(2-Phenylhydrazono)indolin-2-one] |  |  | > 10 | <4.3 | > 10 | 0 | 0 | 0 | 1 | 0 | 0 | fraction unbound at 10 µM ([4]; pH 7.4, read-out: PPB (converted)): < 0.02; EC50 ([7]; Trypanosoma brucei, 72 h, read-out: T.b.b. pEC50 (converted)): 12.6 µM; logD [8]: > 3.8; microsomal CLint ([9]; read-out: HLM Clint): 184 µL/min/mg; solubility [11]: < 2 µM
4 | CC(C)=Cc1cccc2c1C(=NNc1ccc(S(N)(=O)=O)cc1)C(=O)N2 [NEU-1183] | <5 | 7.6 | > 5.01 |  | 0.724 | 2 | 2 | 2 | 2 | 1 | 4 | activity against S. mansoni adults and/or somules ([12]; 10 μM): moderate and variable activity
5 | (Z)-3-(2-(4-((Piperidin-1-ylmethyl)sulfonyl)phenyl)hydrazineylidene)indolin-2-one [NEU-4893] |  |  |  | <4.3 |  |  |  |  |  |  |  | PPB ([4]; 10 µM): 90%; L. donovani pEC50 [5]: <5.30; activity against T. brucei [7]: inactive; T.b.b. pEC50 ([7]; 72 h, resazurin, error within ±0.20 (Table 2) or ±0.08 (Table 3) log units): 5.0; LogD (7.4) [8]: 2.2; HLM Clint [9]: <3 µL/min/mg; T. cruzi pEC50 [10]: <4.70; Rat Hepatocyte Clint [13]: 148 µL/min/10^6 cells
6 | NS(=O)(=O)c1ccc(N/N=C2\C(=O)Nc3ccc(-c4cnco4)cc32)cc1 [NEU-1185] | 18 | 6.4 |  |  |  |  |  |  |  |  |  | 
